Consider 1 molecule from patent publication US12383510B2 (Starton Therapeutics, Inc., priority 2020, dated 2025).

SMILES strings stand for the structures. Entries after “also recorded” stand apart in the source; their conditions may differ. Marks after values point to notes of the source that are not given here.

Series [1] has as its system healthy female volunteers. Nature of the series: Phase 1 study: antiemetic effect of oral olanzapine doses following apomorphine challenge on day 8. It counts as in vivo, human. The note with it: for Nausea Score 1-120 min.: apomorphine 0.05 mg/kg, scale 1=no nausea, 10=severe nausea. On the procedure:
Twenty-four healthy female volunteers were enrolled. Four active-treatment groups and a cohort of placebo-treated subjects were evaluated.
Subjects were administered study drug once daily for 8 days. During this period, subjects maintained a study diary of their side effects. The subject diary was used to collect on a daily basis any adverse events including an assessment of the presence and/or intensity of sedation on a numeric scale where 1=no sedation and 10=excessive sedation.
On the 8th day, subjects were administered apomorphine at a dose of 0.05 mg/kg and assessed over 6 hours. During this period, subjects were asked to record episodes of nausea on a numeric scale every 15 minutes for the duration of assessment. The intensity of nausea was captured using a 1-10 rating scale where 1=no nausea and 10=severe nausea. Emesis intensity was also captured where 1=no emesis and 10=severe emesis. Episodes of retching or emesis were collected and measured for the absolute number of retches or vomits during the collection period and documented for the time of the specific event following the administration of the apomorphine.

The nature of series [2]: clinical. The note with it: human, plasma, oral.
The mark [3] stands for this setting: oral olanzapine 2 mg a day, apomorphine challenge.
Where [4] appears, read: oral olanzapine 4 mg a day, apomorphine challenge.
The mark [5] stands for this setting: oral olanzapine 6 mg a day, apomorphine challenge.
Setting [6] is: oral olanzapine 8 mg a day, apomorphine challenge.

With `Cc1cc2c(s1)Nc1ccccc1N=C2N1CCN(C)CC1` [olanzapine, 2-methyl-10-(4-methyl-1-piperazinyl)-4H-thieno-[2,3-b][1,5]benzo-diazepine], the “Nausea severity scores during 0-120 min following apomorphine challenge, comparison with placebo” value was “not significantly different than placebo” in series [1] (2 mg olanzapine steady state dose); “significantly different than placebo” in series [1] (4 mg olanzapine steady state dose, p<0.05); “significantly different than placebo” in series [1] (6 mg olanzapine steady state dose, p<0.05); “not different from the placebo control; also recorded: not significantly different than placebo” in series [1] (8 mg olanzapine steady state dose). For the same molecule, in series [1] (4 mg, 6 mg and 8 mg dose, apomorphine challenge), the “Maximum intensity of nausea, comparison between doses” value is “no different”. The “Nausea Score 1-120 min.” value in series [1] (oral olanzapine 2 mg a day for 8 days) is recorded as 6**; in series [1] (oral olanzapine 4 mg a day for 8 days), 3.4 #; in series [1] (oral olanzapine 6 mg a day for 8 days), 3.7 #; in series [1] (oral olanzapine 8 mg a day for 8 days), 5**. In addition, the “Nausea Score 1-120 min. (severity in words)” value is reported as “Moderate” in series [1] (setting [3]), “Mild” in series [1] (setting [4]), “Mild” in series [1] (setting [5]) and “Mild” in series [1] (setting [6]). Further, the “Retching (incidence)” value is 40% in series [1] (setting [3]), 0% in series [1] (setting [4]), 0% in series [1] (setting [5]) and 20% in series [1] (setting [6]). Also, the “Vomiting (incidence)” value in series [1] (setting [3]) is listed as 40%; in series [1] (setting [4]) it was 20%; in series [1] (setting [5]) it was 0%; in series [1] (setting [6]) it was 20%. The concentration at 1 day in series [2] (4 mg a day) was found to be 5 ng/mL; in series [2] (6 mg a day), 8 ng/mL.
